In BindingDB's records for PubMed 7509389 (Fujisawa Pharmaceutical, 1994):

Molecular target: T1, Gastrin/cholecystokinin type B receptor (Rattus norvegicus, UniProt P30553)
T1 sequence (P30553 whole entry): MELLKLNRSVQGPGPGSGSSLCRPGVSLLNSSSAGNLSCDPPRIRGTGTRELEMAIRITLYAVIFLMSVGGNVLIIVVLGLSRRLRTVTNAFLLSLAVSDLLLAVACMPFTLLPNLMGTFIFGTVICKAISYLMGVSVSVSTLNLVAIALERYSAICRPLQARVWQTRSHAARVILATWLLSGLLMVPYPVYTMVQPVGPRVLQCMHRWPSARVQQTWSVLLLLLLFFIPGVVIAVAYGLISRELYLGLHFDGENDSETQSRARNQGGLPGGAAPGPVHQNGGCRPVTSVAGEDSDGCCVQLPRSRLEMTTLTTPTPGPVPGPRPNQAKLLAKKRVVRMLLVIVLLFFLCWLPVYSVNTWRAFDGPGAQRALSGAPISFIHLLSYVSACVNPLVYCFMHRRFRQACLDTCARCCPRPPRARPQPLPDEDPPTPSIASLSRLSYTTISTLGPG

- Ki: 330 nM
Compound: CCCCCN(CCCOC)C(=O)C(CCC(=O)O)NC(=O)c1ccc(Cl)c(Cl)c1 (stereo unspecified) [4-(3,4-dichlorobenzamido)-5-((3-methoxypropyl)(pentyl)amino)-5-oxopentanoic acid]
